Laboratory results published in patent US7655665B2, “Nitromethylene derivatives and their use” (East China University of Science and Technology, priority 2004, dated 2010).

Tests used:
Aphis craccivoral = assay: Insecticidal activity against Aphis craccivoral by immersing (dipping aphids on bean sprout); assay type: in vivo; conditions: for mortality (%) (500 ppm) Aphis: 23° C.
Procedure, shortened: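 Wingless adult A. craccivora feeding on bean sprouts dipped 5 seconds in compound at 500 ug/mL (0.2 mL/L Triton X-100 aqueous), then held at 23 °C. Mortality counted after 24 hours, three replicates, vehicle-only control.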

Nilaparvata lugens = assay: Insecticidal activity against Nilaparvata lugens (planthopper) by spraying; assay type: in vivo; conditions: for mortality (%) (500 ppm) Nilaparvata lugens: spraying 2 ml, counted after 24 hours; for mortality (%) (500 ppm) Nilaparvata-lugens: spraying 2 ml per tumbler, killed counted after 24 hours
Procedure, shortened: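 Ten planthoppers per tumbler were introduced 6 hours before spraying with 2 ml of test solution, with clean water as blank control. Each treatment had 3 replicates, and three series were run. Mortality was counted after 24 hours.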

[1] = 500 ppm, immersing (dipped 5 seconds), counted after 24 hours
[2] = 500 ppm (500 ug/mL dilution), dipped 5 seconds, killed aphis counted after 24 hours

Row | SMILES | mortality (%) (500 ppm) Aphis (Aphis craccivoral; [1]) | mortality (%) (500 ppm) Nilaparvata lugens (Nilaparvata lugens) | mortality (%) (500 ppm) Aphis (Aphis craccivoral; [2]) | mortality (%) (500 ppm) Nilaparvata-lugens (Nilaparvata lugens) | further results
1 | CC(C)CCOC1CCC([N+](=O)[O-])=C2N(Cc3cnc(Cl)s3)CCN21 (racemic) [Compound 37] | 56 | 64 |  |  | 
2 | CC(=O)OC1CCC([N+](=O)[O-])=C2N(Cc3ccc(Cl)nc3)CCN21 (stereo not shown) [Compound 113] | 45 | 77 |  |  | 
3 | CCCOC1CCC([N+](=O)[O-])=C2N(CC3CCOC3)CCN21 (stereo not shown) [Compound 50] | 100 | 100 |  |  | 
4 | CCOC1CCC([N+](=O)[O-])=C2N(Cc3ccc(Cl)nc3)CCN21 (stereo not shown) [Compound 3] |  |  |  |  | mortality at 500 ppm (Aphis craccivoral; Aphis, 24 h, read-out: mortality (%) (500 ppm) Aphis): 100%; mortality at 500 ppm (Nilaparvata lugens; Nilaparvata lugens, 24 h, read-out: mortality (%) (500 ppm) Nilaparvata lugens): 100%
5 | COC1CCC([N+](=O)[O-])=C2N(CC3CCOC3)CCN21 (stereo not shown) [Compound 46] | 100 | 100 |  |  | 
6 | CCOCCOC1CCC([N+](=O)[O-])=C2N(Cc3ccc(Cl)nc3)CCN21 (racemic) [Compound 22] | 100 | 100 |  |  | 
7 | CC(=O)OC1CCC([N+](=O)[O-])=C2N(Cc3cnc(Cl)s3)CCN21 (stereo not shown) [Compound 152] | 3 | 0 |  |  | 
8 | CN=C1CCC([N+](=O)[O-])=C2N(Cc3cnc(Cl)s3)CCCN12 [Compound 221] |  |  | 4 | 67 | 
9 | CCN=C1CCC([N+](=O)[O-])=C2N(Cc3ccc(Cl)nc3)CCN12 [Compound 190] |  |  | 89 | 100 | 
10 | CC(C)N=C1CCC([N+](=O)[O-])=C2N(Cc3cnc(Cl)s3)CCCN12 [Compound 227] |  |  | 100 | 100 | 
11 | O=[N+]([O-])C1=C2N(Cc3cnc(Cl)s3)CCN2C(OCC(F)(F)F)CC1 (racemic) [Compound 27] | 100 | 100 |  |  | 
12 | CCSC1CCC([N+](=O)[O-])=C2N(Cc3cnc(Cl)s3)CCN21 (stereo not shown) [Compound 172] |  |  | 100 | 100 | 
13 | CCOCCN=C1CCC([N+](=O)[O-])=C2N(Cc3ccc(Cl)nc3)CCN12 [Compound 200] |  |  | 45 | 78 | 
14 | O=C(OC1CCC([N+](=O)[O-])=C2N(Cc3ccc(Cl)nc3)CCN21)c1cc(F)c(F)cc1F (stereo not shown) [Compound 127] | 45 | 78 |  |  | 
15 | CCOCCOC1CCC([N+](=O)[O-])=C2N(Cc3cnc(Cl)s3)CCCN21 (stereo not shown) [Compound 98] | 4 | 7 |  |  | 
16 | CC(C)OC1CCC([N+](=O)[O-])=C2N(CC3CCOC3)CCN21 (stereo not shown) [Compound 51] | 34 | 23 |  |  | 
17 | O=C(OC1CCC([N+](=O)[O-])=C2N(Cc3ccc(Cl)nc3)CCN21)c1ccccc1F (stereo not shown) [Compound 129] | 0 | 34 |  |  | 
18 | CCOC1CCC([N+](=O)[O-])=C2N(CC3CCOC3)CCN21 (stereo not shown) [Compound 47] | 45 | 100 |  |  | 
19 | O=C(OC1CCC([N+](=O)[O-])=C2N(Cc3cnc(Cl)s3)CCN21)c1ccc(Cl)c(Cl)c1 (stereo not shown) [Compound 170] |  |  | 2 | 0 | 
20 | O=[N+]([O-])C1=C2N(CC3CCOC3)CCN2C(OC2CCCCC2)CC1 (stereo not shown) [Compound 63] | 2 | 6 |  |  | 
21 | CC(C)OC1CCC([N+](=O)[O-])=C2N(CC3CCOC3)CCCN21 (stereo not shown) [Compound 105] | 10 | 98 |  |  | 
22 | CN=C1CCC([N+](=O)[O-])=C2N(Cc3ccc(Cl)nc3)CCN12 [Compound 189] |  |  | 100 | 100 | 
23 | CC(C)(C)CSC1CCC([N+](=O)[O-])=C2N(Cc3cnc(Cl)s3)CCN21 (stereo not shown) [Compound 185] |  |  | 36 | 86 | 
